Test results reported in US20220378807A1, “DELIVERY OF A COOLING AGENT TO THE PHARYNGEAL-ESOPHAGEAL SURFACE” (priority 2019, published 2022).
Values after ≈ are worked out from the molar mass of the structure shown. “Also recorded” adds a separate entry of the source. Where two headings read alike, the source gives them in different places. Values belong to the molecule of their own block, whether it stands above or below them.

What was measured:
[1] = Water solubility of 1-dialkylphosphinoylalkanes; assay type: physicochemical; details: R1R2R3P=O, by R1,R2 and R3
[2] = target: T1, cloned hTRPM8 channel (human TRPM8 gene, expressed in CHO cells) (Homo sapiens, UniProt Q7Z2W7); experiment: TRPM8 agonist activity, Fluo-8 calcium FLIPR assay; assay type: cell-based; details: for Potency relative to menthol / EC50: p-menthane compounds, Table 8; for EC50: 95% limits printed in line below; for Relative Potency to L-menthol: from TRPM8 EC50, menthol = 1.0
T1 construct: host or cells: CHO cells
T1 sequence (Q7Z2W7 whole entry): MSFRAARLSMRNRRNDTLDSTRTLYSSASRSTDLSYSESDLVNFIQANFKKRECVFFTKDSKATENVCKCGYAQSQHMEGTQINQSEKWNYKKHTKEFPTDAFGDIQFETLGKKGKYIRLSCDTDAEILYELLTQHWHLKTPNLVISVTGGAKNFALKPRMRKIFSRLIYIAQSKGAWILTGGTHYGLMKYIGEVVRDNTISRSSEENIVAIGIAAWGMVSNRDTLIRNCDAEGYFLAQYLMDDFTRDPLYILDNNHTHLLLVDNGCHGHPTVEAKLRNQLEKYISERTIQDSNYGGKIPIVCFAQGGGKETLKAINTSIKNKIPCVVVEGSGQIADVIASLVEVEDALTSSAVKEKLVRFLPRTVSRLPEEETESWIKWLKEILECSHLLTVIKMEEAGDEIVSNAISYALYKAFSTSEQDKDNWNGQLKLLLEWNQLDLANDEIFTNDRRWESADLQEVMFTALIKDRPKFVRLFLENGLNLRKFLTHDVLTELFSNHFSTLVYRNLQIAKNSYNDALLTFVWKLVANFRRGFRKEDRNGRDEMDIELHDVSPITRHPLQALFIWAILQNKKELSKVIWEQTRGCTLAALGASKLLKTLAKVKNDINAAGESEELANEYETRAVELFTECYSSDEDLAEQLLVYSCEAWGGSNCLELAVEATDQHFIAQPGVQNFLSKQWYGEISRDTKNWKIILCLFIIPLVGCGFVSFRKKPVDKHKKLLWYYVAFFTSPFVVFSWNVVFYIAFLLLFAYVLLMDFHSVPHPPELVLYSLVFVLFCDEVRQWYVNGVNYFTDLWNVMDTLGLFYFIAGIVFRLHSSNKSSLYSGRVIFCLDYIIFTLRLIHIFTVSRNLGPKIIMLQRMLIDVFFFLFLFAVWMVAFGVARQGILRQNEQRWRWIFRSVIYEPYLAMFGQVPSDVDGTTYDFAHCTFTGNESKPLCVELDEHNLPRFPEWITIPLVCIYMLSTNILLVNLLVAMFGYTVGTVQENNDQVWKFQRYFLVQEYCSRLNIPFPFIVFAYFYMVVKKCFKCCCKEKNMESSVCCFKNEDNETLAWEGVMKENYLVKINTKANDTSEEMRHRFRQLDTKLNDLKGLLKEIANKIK
Method: In the first set of data, the potency and in vitro effects of test compounds were evaluated on cloned hTRPM8 channel (encoded by the human TRPM8 gene, expressed in CHO cells) using a Fluo-8 calcium kit and a Fluorescence Imaging Plate Reader (FLIPR^TETRATM) instrument. […] Test solutions were in HEPES-buffered saline, 384-well plates, and placed into the FLIPR instrument (Molecular Devices Corporation, Union City, Calif., USA). […] The test cells were Chinese Hamster Ovary (CHO) cells stably transfected with human TRPM8 cDNAs. The concentration-response data were analyzed via FLIPR Control software and fitted to a Hill equation for the EC50.

[3] = tested on: throat (Adam's apple, jugular notch, upper chest); assay type: in vivo, human; set-up: key to Jugular Notch / Sternum: cooling rated on a 0-3 scale; Onset: unit not given here; details: for Duraton: duration of cooling after swallowing Shaped-Gel; for Discomfort: in vivo; for Onset: onset of cooling after swallowing Shaped-Gel, no unit in head (min); for Jugular Notch: cooling felt at jugular notch
Method: Shaped-Gel having total weight of 0.4 to 1.2 g containing 0.4 to 1.5% by weight (5 mg/g to 15 mg/g) are prepared and tested. The following examples illustrate the invention, but are not intended to limit the scope of the present invention. A Shaped-Gel in accordance with the present invention was prepared with the following composition.
Shaped-Gels were prepared by these procedures. First step, the cooling agent was accurately weighed and place in a 60 mL plastic container. Then glycerol, water, and gelatin was added to the container and centrifuged for 2 min in a SpeedMixer (FlackTek, Inc.) at 3000 rpm. Then gelatin powder was added and the mixture centrifuged for 3 min. The container was warmed by placing it in a beaker containing hot water (80-85° C.) for 15 min. The container was then centrifuged for 5 min. The liquid mix was cooled and dispensed onto silicon molds with a plastic dropper, and placed in a refrigerator. After one hour, the gels were solidified, removed from the mold with a plastic tweezer, weighed and placed on wax paper and later stored in blister pockets. […] In preliminary studies, the shape of the Shaped-Gel was varied. Square, rectangular, spherical, hemispherical, toroidal, and pentagram Shaped-Gels were prepared at sizes ranging from 0.4 to 1.2 g. A flat shape wherein the shortest diameter was about 20% of the longest axis was preferred because it could be placed flat on the back of the tongue. A Shaped-Gel shaped as a rectangular prism of 2.75 mm×15 mm×15 mm=0.63 cm3 and weighing ˜0.6 g was acceptable to subjects. A toroid, much like a “LiveSaver” mint was also acceptable if the size was ˜0.8 g. Test Panel: The volunteers for testing the Shaped-Gel were six subjects, four males and two females, aged 50 to 76 years. Each Shaped-Gel was tested for at least four trials in at least three subjects. The concentration of the cooling agent in the Shaped-Gel varied from 0.5 to 2%. The duration of observation for each trial usually lasted for not more than 1.5 hours. Subjects were instructed to swallow the Shaped-Gel with a sip of […] water. Cooling sensations were rated on a scale of 0, 1, 2, 3, at intervals of 3 min, 5 min, and then at 10 min intervals. If a cooling value exceeded 2, the subject noted whether the cooling was felt at the level of the Adam's apple, jugular notch or upper chest. Ancillary effects were also recorded.

[4] = tested on: Philtrum Skin; experiment: Cooling on philtrum skin; assay type: in vivo; details: p-menthane compounds, Table 8
[5] = tested on: Eyelids Surfaces; experiment: Cooling on eyelid surfaces; assay type: in vivo; details: p-menthane compounds, Table 8
[6] = tested on: Oral Cavity and Pharynx; experiment: Study 2: sensory qualities of compounds applied to oral cavity and pharynx; assay type: in vivo, human; details: for sensations produced (cooling intensity, cold discomfort, adverse taste): ~0.8 mL per dose to base of tongue, four volunteers
Method: Tests were on four volunteers, with 3 to 5 trials per substance. Compounds were prepared in cherry-flavored Shaped-Gel at 5 mg/mL and administered ˜0.8 mL per dose with a 2 mL plastic vial to the base of the tongue. The subjects asked to rate the sensations for cooling intensity, cold discomfort and adverse taste.

[7] = target: T2, TRPV1 channels (human TRPV1 gene expressed in HEK293 cells) (Homo sapiens, UniProt Q8NER1); details: data in Yang et al. BMC Ophthalmology 17:101 and Wei US 9,956,232; cited from earlier work
T2 construct: expressed in transfected cells; host or cells: HEK293 cells
T2 sequence (Q8NER1 whole entry): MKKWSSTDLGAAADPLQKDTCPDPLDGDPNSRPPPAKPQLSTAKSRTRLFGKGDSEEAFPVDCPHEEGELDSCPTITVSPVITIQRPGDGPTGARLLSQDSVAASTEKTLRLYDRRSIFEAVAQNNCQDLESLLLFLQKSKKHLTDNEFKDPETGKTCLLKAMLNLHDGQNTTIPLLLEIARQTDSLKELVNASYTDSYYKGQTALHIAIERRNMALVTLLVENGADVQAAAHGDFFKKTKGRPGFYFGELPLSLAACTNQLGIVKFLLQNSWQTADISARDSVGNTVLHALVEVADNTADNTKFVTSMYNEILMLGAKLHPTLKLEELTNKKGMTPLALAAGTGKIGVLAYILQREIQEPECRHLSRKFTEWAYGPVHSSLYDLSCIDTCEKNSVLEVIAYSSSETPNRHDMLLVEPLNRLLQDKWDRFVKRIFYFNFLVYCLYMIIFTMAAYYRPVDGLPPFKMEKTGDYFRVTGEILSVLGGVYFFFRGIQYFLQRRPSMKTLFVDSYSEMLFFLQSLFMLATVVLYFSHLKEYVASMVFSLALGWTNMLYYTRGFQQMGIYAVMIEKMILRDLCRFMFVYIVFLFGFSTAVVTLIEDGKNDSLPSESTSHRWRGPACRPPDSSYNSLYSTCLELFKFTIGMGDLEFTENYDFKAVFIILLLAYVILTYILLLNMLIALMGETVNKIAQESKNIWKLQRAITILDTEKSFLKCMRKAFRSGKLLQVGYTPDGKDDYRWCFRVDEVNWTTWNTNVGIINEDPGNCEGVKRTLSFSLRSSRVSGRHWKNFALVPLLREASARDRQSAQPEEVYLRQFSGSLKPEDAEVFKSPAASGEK

[8] = target: T3, TRPA1 channels (human TRPA1 gene expressed in CHO cells) (Homo sapiens, UniProt O75762); details: data in Yang et al. BMC Ophthalmology 17:101 and Wei US 9,956,232; cited from earlier work
T3 construct: expressed in transfected cells; host or cells: CHO cells
T3 sequence (O75762 whole entry): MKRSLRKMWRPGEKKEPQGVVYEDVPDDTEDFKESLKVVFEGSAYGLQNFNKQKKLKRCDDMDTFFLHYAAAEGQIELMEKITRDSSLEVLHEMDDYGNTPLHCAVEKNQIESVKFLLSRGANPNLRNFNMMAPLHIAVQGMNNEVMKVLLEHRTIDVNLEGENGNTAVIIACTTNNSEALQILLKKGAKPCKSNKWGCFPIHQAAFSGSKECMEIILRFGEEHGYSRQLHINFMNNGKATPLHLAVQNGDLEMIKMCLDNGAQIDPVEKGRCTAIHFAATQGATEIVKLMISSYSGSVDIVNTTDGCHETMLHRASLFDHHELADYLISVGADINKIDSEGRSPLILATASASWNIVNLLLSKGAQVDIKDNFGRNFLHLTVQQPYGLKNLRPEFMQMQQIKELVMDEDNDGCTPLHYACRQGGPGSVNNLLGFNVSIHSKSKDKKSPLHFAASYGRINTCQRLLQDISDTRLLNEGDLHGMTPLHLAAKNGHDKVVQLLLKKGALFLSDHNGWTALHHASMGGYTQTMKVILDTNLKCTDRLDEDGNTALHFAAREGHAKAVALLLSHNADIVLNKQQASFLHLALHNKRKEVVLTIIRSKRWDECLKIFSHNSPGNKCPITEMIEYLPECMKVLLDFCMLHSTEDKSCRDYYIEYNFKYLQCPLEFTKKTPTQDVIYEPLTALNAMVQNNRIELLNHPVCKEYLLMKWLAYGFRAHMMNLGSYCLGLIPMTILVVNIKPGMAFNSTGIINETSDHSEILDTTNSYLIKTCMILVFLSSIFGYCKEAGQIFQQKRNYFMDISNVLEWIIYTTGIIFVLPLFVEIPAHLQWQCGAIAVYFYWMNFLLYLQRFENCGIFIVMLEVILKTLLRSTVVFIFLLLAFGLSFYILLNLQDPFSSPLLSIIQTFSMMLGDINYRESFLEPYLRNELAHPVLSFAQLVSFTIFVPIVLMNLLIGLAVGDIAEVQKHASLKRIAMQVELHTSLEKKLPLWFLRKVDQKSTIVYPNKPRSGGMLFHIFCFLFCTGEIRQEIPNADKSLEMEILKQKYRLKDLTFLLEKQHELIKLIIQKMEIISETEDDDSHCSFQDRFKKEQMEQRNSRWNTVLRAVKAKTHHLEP

[9] = tested on: Oral Cavity and Pharynx; experiment: Study 2: sensory qualities of compounds applied to oral cavity and pharynx; assay type: in vivo, human

- solubility [1]: 20 mg/mL (≈ 81.2 mM)
Compound: CCCCCCC[P@@](=O)(C(C)C)C(C)CC (stereo partly drawn) [3,4-7, 1-(Isopropyl-sec-butyl)-phosphinoyl-heptane]

- Potency relative to menthol [2]: 7.6
- EC50 [2]: 500 nM
- Discomfort [3]: yes
Compound: CC(C)OC(=O)CNC(=O)[C@@H]1C[C@H](C)CC[C@H]1C(C)C [Ax-8]
- Duraton [3]: 35 min
- Onset [3]: 5
- Philtrum Skin [4]: 27 min
- Eyelids Surfaces [5]: 300 min

- Potency relative to menthol [2]: 14.0
Compound: CCOC(=O)C(C)NC(=O)[C@@H]1C[C@H](C)CC[C@H]1C(C)C (stereo partly drawn) [D-Ala-OEt]
- Philtrum Skin [4]: 103 min
- Eyelids Surfaces [5]: 180 min

- Potency relative to menthol [2]: 14.6
Compound: CC(C)OC(=O)C(C)NC(=O)[C@@H]1C[C@H](C)CC[C@H]1C(C)C (stereo partly drawn) [D-Ala-OiPr]
- Philtrum Skin [4]: 34 min
- Eyelids Surfaces [5]: 360 min

- Relative Potency to L-menthol [2]: 0.3
Compound: CCCCP(=O)(C(C)CC)C(C)CC (stereo not drawn) [DAPA-2-4, 1-Di(sec-butyl)-phosphinoyl-butane]

- Relative Potency to L-menthol [2]: 2.2
Compound: CCCCCP(=O)(C(C)CC)C(C)CC (stereo not drawn) [DAPA-2-5, 1-di-sec-butyl-phosphorylpentane]

- Relative Potency to L-menthol [2]: 4.7
- Discomfort [3]: yes
Compound: CCCCCCP(=O)(C(C)CC)C(C)CC (stereo not drawn) [DAPA-2-6, 1-Di(sec-butyl)-phosphinoyl-hexane]
- unpleasant taste, description ([6]; 5 mg/mL): “metallic”, “organic solvent-like”, and “harsh”
- sensations produced (cooling intensity, cold discomfort, adverse taste) ([6]; 5 mg/mL): cold, icy cold, and adverse tastes
- Adam's Apple ([3]; cooling felt at Adam's apple, Shaped-Gel): +++ icy
- Jugular Notch ([3]; Shaped-Gel): ++ icy
- Duraton [3]: 30 min
- Onset [3]: <3

- Relative Potency to L-menthol [2]: 3.4
Compound: CCCCCCCP(=O)(C(C)CC)C(C)CC (stereo not drawn) [DAPA-2-7, 1-Di(sec-butyl)-phosphinoyl-heptane]
- unpleasant taste, description ([6]; 5 mg/mL): “metallic”, “organic solvent-like”, and “harsh”
- sensations produced (cooling intensity, cold discomfort, adverse taste) ([6]; 5 mg/mL): cold, icy cold, and adverse tastes

- Relative Potency to L-menthol [2]: 2.9
Compound: CCCCCCCCP(=O)(C(C)CC)C(C)CC (stereo not drawn) [DAPA-2-8, 1-Di(sec-butyl)-phosphinoyl-octane]
- unpleasant taste, description ([6]; 5 mg/mL): “metallic”, “organic solvent-like”, and “harsh”

- TRPM8 potency / bioactivity in words [2]: significant loss of bioactivity
- Relative Potency to L-menthol [2]: 0.2
Compound: CCCCCP(=O)(CC(C)C)CC(C)C [DAPA-3-1, 1-di(iso-butyl) phosphinoyl-pentane]

- TRPM8 potency / bioactivity in words [2]: significant loss of bioactivity
- Relative Potency to L-menthol [2]: 0.9
Compound: CCC(C)P(=O)(CCC(C)C)C(C)CC (stereo not drawn) [DAPA-3-2, 1-Di(sec-butyl)-phosphinoyl-3-methyl-butane]

- Relative Potency to L-menthol [2]: 0.7
Compound: CCCCCP(=O)(C(C)C)C(C)C [DIPA-1-5, 1-Di(isopropyl)-phosphinoyl-pentane]

- Relative Potency to L-menthol [2]: 1.6
Compound: CCCCCCP(=O)(C(C)C)C(C)C [DIPA-1-6, 1-Di(isopropyl)-phosphinoyl-hexane]

- Relative Potency to L-menthol [2]: 5.4
- strong metallic taste ([6]; in vivo): present
Compound: CCCCCCCP(=O)(C(C)C)C(C)C [DIPA-1-7, 1-Di(isopropyl)-phosphinoyl-heptane]
- cold discomfort ([6]; 5 mg/mL): icy cold; also recorded: icy pain in the back of the throat
- unpleasant taste, description ([6]; 5 mg/mL): “metallic”, “organic solvent-like”, and “harsh”
- sensations produced (cooling intensity, cold discomfort, adverse taste) ([6]; 5 mg/mL): cold, icy cold, and adverse tastes
- selectivity: TRPM8 versus TRPV1 [7]: Selectivity is also seen
- selectivity: TRPM8 versus TRPA1 [8]: Selectivity is also seen

- Relative Potency to L-menthol [2]: 5.4
- strong metallic taste ([6]; in vivo): present
Compound: CCCCCCCCP(=O)(C(C)C)C(C)C [DIPA-1-8, 1-Di(isopropyl)-phosphinoyl-octane]
- unpleasant taste, description ([6]; 5 mg/mL): “metallic”, “organic solvent-like”, and “harsh”
- sensations produced (cooling intensity, cold discomfort, adverse taste) ([6]; 5 mg/mL): cold, icy cold, and adverse tastes
- selectivity: TRPM8 versus TRPV1 [7]: Selectivity is also seen
- selectivity: TRPM8 versus TRPA1 [8]: Selectivity is also seen

- Relative Potency to L-menthol [2]: 4.0
- strong metallic taste ([6]; in vivo): does not have a strong metallic taste
- Discomfort ([3]; both, human): 0
Compound: CCCCCCCCCP(=O)(C(C)C)C(C)C [DIPA-1-9, 1-Di(isopropyl)-phosphinoyl-nonane]
- sensations produced (cooling intensity, cold discomfort, adverse taste) ([6]; 5 mg/mL): coolness and cold which was well-tolerated
- general sense of refreshment in the throat, persistence ([6]; in vivo): ≥ 3 h
- onset of sensation of coolness in the throat ([3]; Shaped-Gel applied to base of tongue): 3 min
- Duraton [3]: ~60 min
- Onset [3]: <3
- selectivity: TRPM8 versus TRPV1 [7]: selective for TRPM8 and not TRPVI and TRPA1
- selectivity: TRPM8 versus TRPA1 [8]: selective for TRPM8 and not TRPVI and TRPA1
- icy cold, pain or discomfort at increased concentration ([9]; 5, 8 to 15 mg/mL, 0.8 mL per dose): no pain or discomfort; also recorded: did not produce icy cold or pain
- sensation in the oropharynx and esophagus ([9]; optimized concentrations of 5 to 10 mg/mL): perfect cool in the oropharynx and esophagus but without cold discomfort

- Potency relative to menthol [2]: 10.6
- EC50 [2]: 360 nM
- Discomfort ([3]; both, human): 0
Compound: CCOC(=O)CNC(=O)[C@@H]1C[C@H](C)CC[C@H]1C(C)C [WS-5]
- Duraton [3]: 25 min
- Onset [3]: ~3
- Philtrum Skin [4]: 24 min
- Eyelids Surfaces [5]: 15 min

- Discomfort [3]: 0
Compound: COc1ccc(NC(=O)[C@@H]2C[C@H](C)CC[C@H]2C(C)C)cc1 [WS-12]
- Jugular Notch ([3]; Shaped-Gel): 0
- Sternum ([3]; cooling felt at sternum, Shaped-Gel): 0
- Duraton [3]: 20 min
- Onset [3]: 5

- Discomfort [3]: 0
Compound: CC1CCC(C(C)C)C(C(=O)OCC(O)CO)C1 (stereo not drawn) [WS-30]
- Duraton [3]: 25 min
- Onset [3]: ~3
